Assays:
[1] = tested on: J774 cells; assay: ACAT inhibitory activity (anti-foamation activity) in J774 cells; assay type: cell-based; settings: for IC50: Mus musculus, J774 cells, 25-OH cholesterol 10 μg/ml, 18 hours, read-out: Enzyme (J774) IC50; for IC50 (HepG2)/IC50 (J774): ratio HepG2 / J774
Procedure: (§1) J774 cells or HepG2 cells were spread on a 24-well plate. The cells were incubated in a 5% CO2 incubator at 37° C. for 24 hours using DMEM in the case of the J774 cells and a MEM culture solution in the case of the HepG2 cells (both containing 10% fetal calf serum).
(§2) The medium was removed, and the residue was washed twice with PBS, then extracted with 1.5 ml of a hexane:isopropanol (3:2) mixture, and concentrated to dryness. The extract was dissolved in 0.2 ml of isopropanol containing 10% Triton X-100. Total cholesterol (TC) and free cholesterol (FC) were measured using Cholesterol E Test Wako (supplied by Wako Pure Chemical Industries, Ltd.) and Free Cholesterol E Test Wako (supplied by Wako Pure Chemical Industries, Ltd.).
(§3) The cell extract residue was solubilized in 0.25 ml of 2N NaOH at 37° C. for 30 minutes, and the protein amount was measured using BCA Protein Assay Reagent (Pierce).
(§4) The amount of cholesterol based on the protein was calculated from the difference between TC and FC, and an IC50 value was obtained from the calculation in contrast with the control.

[2] = tested on: HepG2 cells; assay: ACAT inhibitory activity (anti-foamation activity) in HepG2 cells; assay type: cell-based; settings: Homo sapiens, 25-OH cholesterol 10 μg/ml, 18 hours, read-out: Enzyme (HepG2) IC50
Procedure: as §1, §2, §3, §4

[3] = biological target: T1, ACAT (enzyme solution derived from the small intestine of a rabbit); assay: ACAT inhibitory activity, enzyme solution from rabbit small intestine; assay type: biochemical; settings: B‡: the small intestine
T1 construct: An enzyme solution derived from the small intestine was prepared from the small intestine of a rabbit that had eaten a normal food
Procedure: (§5) A microsome was prepared from the breast aorta of a rabbit which had been fed with 1% cholesterol food for 8 weeks in a usual manner, and suspended in a 0.15 M phosphate buffer solution (pH 7.4) to form an enzyme solution. An enzyme solution derived from the small intestine was prepared from the small intestine of a rabbit that had eaten a normal food.
(§6) To this solution were added 10 μl of the enzyme solution, and the mixture was reacted at 37° C. for 5 minutes (for 3 minutes in the case of the small intestine). Then, 3 ml of a chloroform/methanol (2/1) mixture and 0.5 ml of 0.04 N hydrochloric acid were added thereto to stop the reaction. The lipid was then extracted. The solvent layer was concentrated to dryness, and dissolved in hexane. The solution was spotted on a TLC plate(supplied by Merck Co.). The elution was conducted with a hexane:ether:acetic acid (75:25:1) mixture.
(§7) The radioactivity of the resulting cholesterol ester fraction was measured using BAS 2000 (supplied by Fuji Photo Film Co., Ltd.). An IC50 value was obtained from the calculation in contrast with a control containing only DMSO.

[4] = biological target: ACAT (microsome from the breast aorta of a rabbit) (Oryctolagus cuniculus, UniProt G1SUQ0); assay: ACAT inhibitory activity, microsome from rabbit breast aorta (blood vessel wall enzyme); assay type: biochemical; settings: microsome from breast aorta of cholesterol-fed rabbit
Procedure: as §5, §6, §7

ACAT (microsome from the breast aorta of a rabbit), sequence (G1SUQ0 entry or part of it): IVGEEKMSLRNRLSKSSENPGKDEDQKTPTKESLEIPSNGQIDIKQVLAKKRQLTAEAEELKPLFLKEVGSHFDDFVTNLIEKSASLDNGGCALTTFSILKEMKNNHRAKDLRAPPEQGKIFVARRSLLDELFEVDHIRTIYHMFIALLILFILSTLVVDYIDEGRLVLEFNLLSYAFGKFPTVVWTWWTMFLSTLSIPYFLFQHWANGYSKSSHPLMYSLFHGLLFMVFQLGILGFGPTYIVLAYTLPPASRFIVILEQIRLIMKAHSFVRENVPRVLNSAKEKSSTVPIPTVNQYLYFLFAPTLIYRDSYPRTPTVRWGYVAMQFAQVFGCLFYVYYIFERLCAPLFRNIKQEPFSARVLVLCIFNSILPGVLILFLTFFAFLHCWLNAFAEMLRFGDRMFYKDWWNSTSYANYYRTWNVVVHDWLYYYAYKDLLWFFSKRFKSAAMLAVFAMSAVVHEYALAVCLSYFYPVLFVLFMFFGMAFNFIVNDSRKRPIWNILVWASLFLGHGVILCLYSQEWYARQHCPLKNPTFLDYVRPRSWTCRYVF

IC50 [1] [nM] | IC50 (HepG2)/IC50 (J774) [1] | IC50 [2] [nM] | melting point [°C] | IC50 [3] [nM] | IC50 [4] [nM] | SMILES
2.7 | 11.1 | 30 | 76 to 78 |  |  | Cc1cc(SC(C)C)c(NC(=O)CCCCCCSc2nc3cccc(C(F)(F)F)c3o2)c(SC(C)C)n1 [Compound No. 1292, 7-(7-trifluoromethylbenzoxazol-2-ylthio)-N-[2,4-bis(isopropylthio)-6-methyl-3-pyridyl]heptanamide]
4.2 | 0.6 | 2.4 | 97 to 98 |  |  | Cc1cc(SC(C)C)c(NC(=O)CCCCCCCCSc2nc3cccc(C(F)(F)F)c3o2)c(SC(C)C)n1 [Compound No. 1294, 9-(7-trifluoromethylbenzoxazol-2-ylthio)-N-[2,4-bis(isopropylthio)-6-methyl-3-pyridyl]nonanamide]
320 |  |  |  | 56 | 34 | CCCCCCCCCN(CC(C)(C)C)C(=O)N[C@H]1CCCC[C@@H]1OC(=O)CCNC(=O)C1OC(C)(C)OCC1(C)C (stereo partly drawn) [Control 3, N-(2,2,5,5-tetramethyl-1,3-dioxan-4-ylcarbonyl)-β-alanine 2 (S)-[N′-(2,2-dimethylpropyl)-N′-nonylureido]-1(S)-cyclohexyl ester]

From patent US7414066B2, “Amide compounds and medications containing the same technical field” (Kowa Company Ltd., priority 1999, dated 2008)
